The source of these data is patent publication US9067922B2, “Chemical compounds” (Pfizer Limited, priority 2013, dated 2015).

The structures appear in SMILES notation.

URAT-1 transporter, sequence (Q96S37 other isoform, or with tags, fused parts or gaps): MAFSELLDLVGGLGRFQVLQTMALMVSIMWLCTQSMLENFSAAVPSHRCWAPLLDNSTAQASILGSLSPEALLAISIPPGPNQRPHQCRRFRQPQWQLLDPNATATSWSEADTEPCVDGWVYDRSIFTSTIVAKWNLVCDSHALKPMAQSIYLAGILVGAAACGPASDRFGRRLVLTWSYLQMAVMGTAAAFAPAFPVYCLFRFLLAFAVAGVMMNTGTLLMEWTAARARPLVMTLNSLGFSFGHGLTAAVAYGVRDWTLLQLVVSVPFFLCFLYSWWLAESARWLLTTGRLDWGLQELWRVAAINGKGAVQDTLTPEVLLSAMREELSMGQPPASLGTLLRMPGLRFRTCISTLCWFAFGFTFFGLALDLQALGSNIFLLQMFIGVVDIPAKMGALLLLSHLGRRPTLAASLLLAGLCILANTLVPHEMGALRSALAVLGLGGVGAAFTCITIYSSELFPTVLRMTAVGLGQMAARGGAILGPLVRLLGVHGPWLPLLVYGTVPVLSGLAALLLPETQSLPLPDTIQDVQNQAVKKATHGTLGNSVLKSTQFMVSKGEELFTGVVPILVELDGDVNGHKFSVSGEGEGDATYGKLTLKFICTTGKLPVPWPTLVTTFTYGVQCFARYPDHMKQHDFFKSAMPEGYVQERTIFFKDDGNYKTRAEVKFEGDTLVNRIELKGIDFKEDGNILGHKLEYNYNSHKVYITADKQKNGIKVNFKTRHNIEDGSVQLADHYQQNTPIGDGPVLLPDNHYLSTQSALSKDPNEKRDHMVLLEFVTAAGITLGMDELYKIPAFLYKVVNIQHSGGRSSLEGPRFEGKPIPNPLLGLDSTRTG

The target of this assay is URAT-1 transporter (Homo sapiens (Human), UniProt Q96S37). The assay is described as follows: URAT-1 inhibitor activity: [14C]-uric acid uptake in CHO-URAT1(L)GFP#8 (CHO#8) cells, scintillation proximity. The class given is cell-based. As to conditions: inhibition of [14C]-uric acid (30 nM) uptake into CHO#8 cells; compound 0 to 10 μM; 4 parameter logistic fit. The source says:
The nucleotide sequence for the long isoform of URAT1 (NM_144585) was C-terminally fused to that of enhanced green fluorescent protein (eGFP) (hereinafter referred to as URAT1(L)GFP). The combined sequence was codon-optimised and custom synthesized. The synthesized sequence was generated in pDONR221 Gateway entry vector (Invitrogen Life Technologies) prior to cloning in pLenti6.3/V5 Gateway destination vector (Invitrogen Life Technologies).
Lentiviral particles were generated according to ViraPower HiPerform expression system procedure (Invitrogen Life Technologies) and used to transduce CHO cells. […] The clonal pools were sorted using fluorescence-activated cell sorting (FACS) on the basis of GFP expression with the gating set at the top 50% of expression into single cells which were subsequently expanded to generate clonal lines. […] This cell line was used for all screening activities and is referred to as CHO-URAT1(L)GFP#8 or CHO#8.
The potency of the compounds of formula (I) as inhibitors of the URAT-1 transporter was determined as follows.
CHO#8 cells were cultured in cell line maintenance flasks in medium consisting of Dulbecco's modified Eagle medium (DMEM) with high glucose and sodium pyruvate (4.5 g of glucose per liter, Invitrogen Life Technologies), supplemented with heat-inactivated foetal bovine serum (FBC, 10% v/v), 1×NEAA (non-essential amino acids) and blasticidin (10 μg/ml). Cultures were grown in 175 cm^2 tissue culture flasks in a humidified incubator at approximately 37° C. in approximately 95% air/5% CO2. Near confluent CHO#8 cell cultures were harvested by trypsinisation, re-suspended in culture medium and the process was repeated once or twice weekly to provide sufficient cells for use.
Assay ready flasks were generated by the same method, except the cells were not cultured in blasticidin.
Assay ready frozen cells were generated by freezing 40,000,000 cells in 1 ml of FBS (without blasticidin) containing 10% DMSO per vial. One vial was sufficient for 5 assay plates. Each vial was thawed rapidly to 37° C., washed and re-suspended in pre-warmed culture medium for seeding onto assay plates.
CHO#8 cells were seeded onto Cytostar™ 96-well plates at a density of […]. The cells were cultured for 1 day at approximately 37° C. in a humidified incubator containing approximately 5% CO2 in air. After approximately 24 hours culture, cells were used for uptake experiments.
On the day of assay, culture medium was removed from the wells and the cells were washed once with 50 μL of chloride-containing buffer (136.7 mM NaCl, 5.36 mM KCl, 0.952 mM CaCl2, 0.441 mM KH2PO4, 0.812 mM MgSO4, 5.6 mM D-glucose, 0.383 mM Na2HPO4.2H2O, 10 mM HEPES, pH 7.4 with NaOH). The cells were pre-incubated with another 50 μL of chloride-containing buffer for one hour at approximately 37° C. in a humidified incubator containing approximately 5% CO2 in air.
Assay compound plates were prepared by diluting the compounds of formula (I) with chloride-free buffer (125 mM Na-gluconate, 4.8 mM K-gluconate, 1.3 mM Ca-gluconate, 1.2 mM KH2PO4, 1.2 mM MgSO4, 5.6 mM D-glucose, 25 mM HEPES, pH 7.4 with NaOH) in 100% DMSO to a final concentration of 1% DMSO. [^14C]-Uric Uric acid working stock was made by addition of radiolabeled compound to a final concentration of 120 nM in chloride-free buffer. In all wells, the final assay concentration of solvent (DMSO) was 0.25%; the final assay concentration of [^14C]-uric acid was 30 nM in chloride-free buffer and the final compound of formula (I) concentrations ranged from 0 to 10 μM.
After pre-incubation, cells were washed with 50 μL of chloride-free buffer and another 50 μL of chloride-free buffer was added.
Background: SPA uses beads or plates that emit light when radiolabelled molecules are held near them.
Usually IC50 stands for the concentration needed to halve the response being measured. Higher therefore signals weaker potency. `N#Cc1cc(S(=O)(=O)Nc2ccc(F)cn2)ccc1Oc1ccc(Cl)cc1` [Example 20, 4-(4-chlorophenoxy)-3-cyano-N-(5-fluoropyridin-2-yl)benzenesulfonamide] registered an IC50 of 88 nM.
`N#Cc1ccc(Oc2ccc(S(=O)(=O)Nc3ncccc3F)cc2C#N)cc1Cl` [Example 103, 4-(3-chloro-4-cyanophenoxy)-3-cyano-N-(3-fluoropyridin-2-yl)benzenesulfonamide] yielded a concentration for half-maximal inhibition (IC50) of 145 nM.
Turning to `N#Cc1cc(Oc2ccc(S(=O)(=O)Nc3ccc(F)cn3)cc2C#N)ccc1F` [Example 19, 3-cyano-4-(3-cyano-4-fluorophenoxy)-N-(5-fluoropyridin-2-yl)benzenesulfonamide], the IC50 was determined as 57 nM.
Compound `CCc1cc(F)ccc1Oc1ccc(S(=O)(=O)Nc2ccc(F)cn2)cc1C#N` [Example 56, 3-cyano-4-(2-ethyl-4-fluorophenoxy)-N-(5-fluoropyridin-2-yl)benzenesulfonamide] came in with an IC50 of 182 nM.
In turn, `COc1cccc(F)c1Oc1ccc(S(=O)(=O)Nc2ccc(F)cn2)cc1C#N` [Example 111, 3-cyano-4-(2-fluoro-6-methoxyphenoxy)-N-(5-fluoropyridin-2-yl)benzenesulfonamide] registered an IC50 of 74 nM.
Next, `N#Cc1ccc(Oc2ccc(S(=O)(=O)Nc3cccnn3)cc2C#N)cc1Cl` [Example 98, 4-(3-chloro-4-cyanophenoxy)-3-cyano-N-(pyridazin-3-yl)benzenesulfonamide]: 3870 nM; `N#Cc1cc(S(=O)(=O)Nc2ccc(F)cn2)ccc1Oc1cnc(C#N)c(Cl)c1` [Example 68, 4-[(5-chloro-6-cyanopyridin-3-yl)oxy]-3-cyano-N-(5-fluoropyridin-2-yl)benzenesulfonamide]: 155 nM.
With `CC(C)COc1ccc(Oc2ccc(S(=O)(=O)Nc3ccc(F)cn3)cc2C#N)cn1` [Example 121, 3-cyano-N-(5-fluoropyridin-2-yl)-4-{[6-(2-methylpropoxy)pyridin-3-yl]oxy}benzenesulfonamide] the figure was above 10000 nM; with `COc1cc(F)c(F)cc1Oc1ccc(S(=O)(=O)Nc2ccc(F)cn2)cc1C#N` [Example 144, 3-cyano-4-(4,5-difluoro-2-methoxyphenoxy)-N-(5-fluoropyridin-2-yl)benzenesulfonamide], 40 nM.
Compound `COc1ccncc1Oc1ccc(S(=O)(=O)Nc2ccc(F)cn2)cc1C#N` [Example 190, 3-cyano-N-(5-fluoropyridin-2-yl)-4-[(4-methoxypyridin-3-yl)oxy]benzenesulfonamide] displayed a half-maximal inhibitory concentration (IC50) above 10000 nM.
`CN(C)c1cccc(Oc2ccc(S(=O)(=O)Nc3ccc(F)cn3)cc2C#N)c1` [Example 131, 3-cyano-4-[3-(dimethylamino)phenoxy]-N-(5-fluoropyridin-2-yl)benzenesulfonamide]: the half-maximal inhibitory concentration (IC50) is above 10000 nM.
`Cc1cc(Cl)cc(Oc2ccc(S(=O)(=O)Nc3ccc(F)cn3)cc2C#N)c1` [Example 15, 4-(3-chloro-5-methylphenoxy)-3-cyano-N-(5-fluoropyridin-2-yl)benzenesulfonamide]: the half-inhibitory concentration (IC50) was found to be 135 nM.
`N#Cc1cc(Cl)ccc1Oc1ccc(S(=O)(=O)Nc2ccc(F)cn2)cc1C#N` [Example 45, 4-(4-chloro-2-cyanophenoxy)-3-cyano-N-(5-fluoropyridin-2-yl)benzenesulfonamide]: the concentration for half-maximal inhibition (IC50) was 174 nM. This IC50 and that of the compound before are within 1.5-fold of each other.
On to `COc1ccc(Oc2ccc(S(=O)(=O)Nc3ccc(F)cn3)cc2C#N)cc1` [Example 188, 3-cyano-N-(5-fluoropyridin-2-yl)-4-(4-methoxyphenoxy)benzenesulfonamide], for which the concentration for half-maximal inhibition (IC50) is 3740 nM.
In turn, `N#Cc1cc(S(=O)(=O)Nc2ccc(F)cn2)ccc1Oc1cc(F)ccc1F` [Example 53, 3-cyano-4-(2,5-difluorophenoxy)-N-(5-fluoropyridin-2-yl)benzenesulfonamide] registered an IC50 of 191 nM.
With `COc1ccc(Oc2ccc(S(=O)(=O)Nc3ccc(F)cn3)cc2C#N)c(C)c1` [Example 201, 3-cyano-N-(5-fluoropyridin-2-yl)-4-(4-methoxy-2-methylphenoxy)benzenesulfonamide], the IC50 is 74 nM. Compared with the last compound, the IC50 is about 2.6-fold lower.
The compound `Cc1cc(Oc2ccc(S(=O)(=O)Nc3ccc(F)cn3)cc2C#N)ccc1F` [Example 141, 3-cyano-4-(4-fluoro-3-methylphenoxy)-N-(5-fluoropyridin-2-yl)benzenesulfonamide] displayed an IC50 of 43 nM.
For the compound `Cc1ccc(F)c(Oc2ccc(S(=O)(=O)Nc3ccc(F)cn3)cc2C#N)c1F` [Example 119, 3-cyano-4-(2,6-difluoro-3-methylphenoxy)-N-(5-fluoropyridin-2-yl)benzenesulfonamide], the 50% inhibitory concentration (IC50) was 90 nM.
For `CC(C)c1ccccc1Oc1ccc(S(=O)(=O)Nc2ccc(F)cn2)cc1C#N` [Example 49, 3-cyano-N-(5-fluoropyridin-2-yl)-4-[2-(propan-2-yl)phenoxy]benzenesulfonamide], the IC50 was above 1380 nM.
Next, `N#Cc1cc(S(=O)(=O)Nc2cccnn2)ccc1Oc1ccc(Cl)cc1OC(F)F` [Example 86, 4-[4-chloro-2-(difluoromethoxy)phenoxy]-3-cyano-N-(pyridazin-3-yl)benzenesulfonamide]: above 5330 nM.
`N#Cc1c(Cl)cccc1Oc1ccc(S(=O)(=O)Nc2cccnc2)cc1` [Example 219, 4-(3-chloro-2-cyanophenoxy)-N-(pyridin-3-yl)benzenesulfonamide]: the half-inhibitory concentration (IC50) was above 10000 nM.
Turning to `N#Cc1cc(S(=O)(=O)Nc2ccc(F)cn2)ccc1Oc1cccc(C#N)c1Cl` [Example 64, 4-(2-chloro-3-cyanophenoxy)-3-cyano-N-(5-fluoropyridin-2-yl)benzenesulfonamide], the IC50 was above 1130 nM.
`COc1cc(C)cc(Oc2ccc(S(=O)(=O)Nc3ccc(F)cn3)cc2C#N)c1` [Example 182, 3-cyano-N-(5-fluoropyridin-2-yl)-4-(3-methoxy-5-methylphenoxy)benzenesulfonamide] came in with a half-maximal inhibitory concentration (IC50) of 175 nM. This counts as sub-micromolar.
Next, `N#Cc1cc(F)ccc1Oc1ccc(S(=O)(=O)Nc2ccc(F)cn2)cc1C#N` [Example 36, 3-cyano-4-(2-cyano-4-fluorophenoxy)-N-(5-fluoropyridin-2-yl)benzenesulfonamide]: 241 nM; `N#Cc1c(Cl)cccc1Oc1ccc(S(=O)(=O)Nc2cnccn2)cc1` [Example 223, 4-(3-chloro-2-cyanophenoxy)-N-(pyrazin-2-yl)benzenesulfonamide]: above 10000 nM; `N#Cc1ccnc(NS(=O)(=O)c2ccc(Oc3ccc(F)c(Cl)c3)c(C#N)c2)c1` [compound 229]: 126 nM.
Compound `Cc1cc(Oc2ccc(S(=O)(=O)Nc3ccc(F)cn3)cc2C#N)cc(C)c1Cl` [Example 149, 4-(4-chloro-3,5-dimethylphenoxy)-3-cyano-N-(5-fluoropyridin-2-yl)benzenesulfonamide] registered an IC50 of 95 nM.
`CCOc1cc(Cl)ccc1Oc1ccc(S(=O)(=O)Nc2ccc(F)cn2)cc1C#N` [Example 110, 4-(4-chloro-2-ethoxyphenoxy)-3-cyano-N-(5-fluoropyridin-2-yl)benzenesulfonamide] returned an IC50 of 123 nM.
In the case of `COc1c(F)ccc(Oc2ccc(S(=O)(=O)Nc3ccc(F)cn3)cc2C#N)c1C` [Example 165, 3-cyano-4-(4-fluoro-3-methoxy-2-methylphenoxy)-N-(5-fluoropyridin-2-yl)benzenesulfonamide], the midpoint of inhibition, the IC50, lay at 139 nM.
Consider `Cc1ccncc1Oc1ccc(S(=O)(=O)Nc2ccc(F)cn2)cc1C#N` [Example 198, 3-cyano-N-(5-fluoropyridin-2-yl)-4-[(4-methylpyridin-3-yl)oxy]benzenesulfonamide], for which the IC50 turned out to be 792 nM.
`CCOc1cccc(Oc2ccc(S(=O)(=O)Nc3ccc(F)cn3)cc2C#N)c1` [Example 135, 3-cyano-4-(3-ethoxyphenoxy)-N-(5-fluoropyridin-2-yl)benzenesulfonamide] displayed an IC50 above 10000 nM.
